Where two headings read alike, the source gives them in different places. A value given as a limit tells only on which side of the number the result lay.

One series concerns the target T1, NMDAR2C (Homo sapiens, UniProt Q14957).
T1 construct: expressed in transfected cells; host or cells: HEK cells (membrane extract)
The series can be described thus: [3H]MK-801 binding in NMDAR2C expressing HEK cell membranes. It counts as biochemical. The following applies: second part of table (r25-r35); c2, taken as NMDAR2C; read-out: B: log EC50 (converted). On the procedure: Assays were conducted as described by Moskal et al., “GLYX-13: a monoclonal antibody-derived peptide that acts as an N-methyl-D-aspartate receptor modulator,” Neuropharmacology, 49, 1077-87, 2005. These studies were designed to determine if the test compounds act to facilitate NMDAR activation in NMDAR2A, NMDAR2B, NMDAR2C or NMDAR2D expressing HEK cell membranes as measured by increases in [^3H]MK-801 binding.
In the assay, 300 μg of NMDAR expressing HEK cell membrane extract protein was preincubated for 15 minutes at 25° C. in the presence of saturating concentrations of glutamate (50 μM) and varying concentrations of test compound (1×10^−15M−1×10^−7M), or 1 mM glycine. Following the addition of 0.3 μCi of [^3H]MK-801 (22.5 Ci/mmol), reactions were again incubated for 15 minutes at 25° C. (nonequilibrium conditions). Bound and free [^3H]MK-801 were separated via rapid filtration using a Brandel apparatus.
In analyzing the data, the DPM (disintegrations per minute) of [^3H]MK-801 remaining on the filter were measured for each concentration of test compound or for 1 mM glycine. The DPM values for each concentration of a ligand (N=2) were averaged. The baseline value was determined from the best fit curve of the DPM values modeled using the GraphPad program and the log(agonist) vs. response (three parameters) algorithm was then subtracted from all points in the dataset. The % maximal [^3H]MK-801 binding was then calculated relative to that of 1 mM glycine: all baseline subtracted DPM values were divided by the average value for 1 mM glycine. The EC50 and % maximal activity were then obtained from the best fit curve of the % maximal [^3H]MK-801 binding data modelled using the GraphPad program and the log(agonist) vs. response (three parameters) algorithm. […]

Series [1] is described as follows: oral pharmacokinetics (plasma, brain, CSF). The following applies: Sprague Dawley rats, per os 10 mg/kg; for Tmax: normal saline (first four compounds: 5% NMP, 5% Solutol HS, 90% normal saline). It counts as in vivo.
Experimental: Plasma, brain, and CSF samples were analyzed at various time points over a 24 hour period.
The next series concerns rats. The series is described as follows: positive emotional learning (PEL) test, 50-kHz ultrasonic vocalizations. It counts as in vivo. The following applies: rat, PO, one hour after administration. On the procedure:
Experiments were conducted as described in Burgdorf et al., “The effect of selective breeding for differential rates of 50-kHz ultrasonic vocalizations on emotional behavior in rats,” Devel. Psychobiol., 51:34-46 (2009). Rat 50-kHz ultrasonic vocalization (hedonic USVs) is a validated model for the study of positive affective state and is best elicited by rough-and-tumble play.
The PEL assay measures the acquisition of positive (hedonic) 50-kHz ultrasonic vocalizations (USVs) to a social stimulus, heterospecific rough and tumble play stimulation. Heterospecific rough-and-tumble play stimulation was administered by the experimenter's right hand. One hour after administration of test compound or vehicle negative control (0.5% sodium carboxymethyl cellulose in 0.9% sterile saline vehicle), animals received 3 min of heterospecific rough-and-tumble play that consisted of alternating 15 sec blocks of heterospecific play and 15 sec of no-stimulation. High frequency ultrasonic vocalizations (USVs) were recorded and analyzed by sonogram with Avasoft SASlab Pro (Germany) as previously described by Burgdorf et al., “Positive emotional learning is regulated in the medial prefrontal cortex by GluN2B-containing NMDA receptors,” Neuroscience, 192:515-523 (2011). Frequency modulated 50-kHz USVs that occurred during each of the no-stimulation periods were quantified to measure PEL. Animals were not habituated to play stimulation before testing. Positive emotional learning was measured during the conditioned stimulus (CS) trials preceding the tickle unconditioned stimulus (UCS) trials. Animals received 15 second trials consisting of 6 CS and 6 UCS trials each (3 min total).
The table below summarizes the findings. As each experiment includes its own vehicle group, an example (typical) vehicle score is shown. Max effect (mean number of 50 kHz USVs per 15 seconds) is reported as ^: <6.0; *: 6.0-7.6; **: 7.7-10; ***:10.1-20

The target of the next series is T2, NMDAR2B (Homo sapiens, UniProt Q13224).
T2 construct: expressed in transfected cells; host or cells: HEK cells (membrane extract)
The series can be described thus: [3H]MK-801 binding in NMDAR2B expressing HEK cell membranes. It is filed as biochemical. The following applies: 50 μM glutamate; for EC50: read-out: B: log EC50 (converted). The essentials: (§1)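 HEK membranes (300 μg protein) expressing one NMDAR2 subtype preincubated 15 min at 25 °C with 50 μM glutamate and compound (1×10^−15–1×10^−7 M), then 15 min with [3H]MK-801 (nonequilibrium), filtered. Baseline-subtracted binding expressed as % of 1 mM glycine; EC50 and % maximal from three-parameter fit.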

The target of series [2] is T3, NMDAR2D (Homo sapiens, UniProt O15399).
T3 construct: expressed in transfected cells; host or cells: HEK cells (membrane extract)
The series is described as follows: [3H]MK-801 binding in NMDAR2D expressing HEK cell membranes. It is filed as biochemical. Further details: key to B: log EC50: 0=−; ≥1×10^−9 M (e.g., −8)=+; <1×10^−9 M (e.g., −10)=++. The essentials: as §1

The target in the next series is T4, NMDAR2A (Homo sapiens, UniProt Q12879).
T4 construct: expressed in transfected cells; host or cells: HEK cells (membrane extract)
The series is described as follows: [3H]MK-801 binding in NMDAR2A expressing HEK cell membranes. It counts as biochemical. The following applies: 50 μM glutamate; for EC50: read-out: B: log EC50 (converted). The essentials: as §1

The nature of another series: IV pharmacokinetics. It is filed as in vivo. The following applies: Sprague Dawley rats; for C0: normal saline (first four compounds: 5% NMP, 5% Solutol HS, 90% normal saline); for Vd: read-out: Vss. On the procedure:
Sprague Dawley rats were dosed intravenously using a normal saline formulation containing 2 mg/kg of the compounds identified in the below table (except for the first four compounds that were delivered in 5% NMP, 5% Solutol® HS and 90% normal saline formulation). The table below summarizes the results of the IV pharmacokinetics.

Series [3] deals with T5, NMDAR2D (Homo sapiens, UniProt O15399+Q05586).
T5 construct: expressed in transfected cells; host or cells: HEK cells (membrane extract)
The series is described as follows: [3H]MK-801 binding in NMDAR2D expressing HEK cell membranes. Also noted: key to B: log EC50: 0=−; ≥1×10^−9 M (e.g., −8)=+; <1×10^−9 M (e.g., −10)=++. It counts as biochemical. The following applies: for EC50: second part of table (r25-r35), c4, taken as NMDAR2D, read-out: B: log EC50 (converted); for Emax: second part of table, c3, taken as NMDAR2D, read-out: A: % maximal [3H]MK-801 binding relative to 1 mM glycine. The essentials:
as §1

The next series deals with Sprague Dawley rats. The series can be described thus: Porsolt forced swim test. It is filed as in vivo. The following applies: 0.1 mg/kg; for % reduction in float time: relative to vehicle group.
The mark [4] stands for this setting: Sprague Dawley, rat, plasma, po, 10 mg/kg.
The mark [5] stands for this setting: Sprague Dawley, rat, plasma, po, 10 mg/kg, plasma, read-out: Cmax.
Where [6] appears, read: rat, plasma, po, read-out: Tmax.
Where [7] appears, read: Sprague Dawley, rat, in vivo, iv, 2 mg/kg.
[8] abbreviates: Sprague Dawley, rat, in vivo, iv, 2 mg/kg, read-out: C0.

T1 sequence (Q14957 20-1233, species assumed, other chains not shown): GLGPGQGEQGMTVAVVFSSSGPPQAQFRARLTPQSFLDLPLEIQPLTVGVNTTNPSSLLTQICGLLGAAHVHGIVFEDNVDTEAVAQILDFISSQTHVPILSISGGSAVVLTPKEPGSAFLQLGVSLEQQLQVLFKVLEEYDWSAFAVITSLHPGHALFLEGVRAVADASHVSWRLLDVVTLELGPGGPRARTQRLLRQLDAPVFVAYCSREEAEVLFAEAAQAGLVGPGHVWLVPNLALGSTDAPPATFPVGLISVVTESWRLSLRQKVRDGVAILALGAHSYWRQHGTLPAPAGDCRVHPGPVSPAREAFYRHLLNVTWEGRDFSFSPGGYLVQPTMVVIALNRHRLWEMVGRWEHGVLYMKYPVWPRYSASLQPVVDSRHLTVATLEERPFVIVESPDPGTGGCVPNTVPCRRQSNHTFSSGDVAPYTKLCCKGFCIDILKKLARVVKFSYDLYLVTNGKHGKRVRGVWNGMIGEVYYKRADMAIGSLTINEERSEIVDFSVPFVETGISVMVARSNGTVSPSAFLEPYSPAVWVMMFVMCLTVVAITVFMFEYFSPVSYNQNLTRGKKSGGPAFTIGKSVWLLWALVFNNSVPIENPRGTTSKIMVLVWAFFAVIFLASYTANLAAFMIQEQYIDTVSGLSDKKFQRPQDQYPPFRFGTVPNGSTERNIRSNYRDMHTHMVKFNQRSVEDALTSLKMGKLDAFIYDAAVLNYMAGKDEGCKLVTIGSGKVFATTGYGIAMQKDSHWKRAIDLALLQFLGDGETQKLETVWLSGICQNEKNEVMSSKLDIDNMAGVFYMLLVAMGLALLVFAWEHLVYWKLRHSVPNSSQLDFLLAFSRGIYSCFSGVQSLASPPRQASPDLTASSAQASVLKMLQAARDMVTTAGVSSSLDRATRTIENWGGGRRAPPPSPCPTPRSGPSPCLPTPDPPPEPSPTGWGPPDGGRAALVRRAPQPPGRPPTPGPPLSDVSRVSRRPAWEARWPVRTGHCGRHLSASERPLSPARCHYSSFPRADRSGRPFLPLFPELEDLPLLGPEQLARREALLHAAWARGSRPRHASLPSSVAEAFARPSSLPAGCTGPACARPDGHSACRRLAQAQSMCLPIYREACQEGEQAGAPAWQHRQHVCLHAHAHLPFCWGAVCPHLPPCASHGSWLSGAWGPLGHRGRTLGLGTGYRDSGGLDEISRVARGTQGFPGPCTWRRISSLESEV
T2 sequence (Q13224 27-1484, species assumed, other chains not shown): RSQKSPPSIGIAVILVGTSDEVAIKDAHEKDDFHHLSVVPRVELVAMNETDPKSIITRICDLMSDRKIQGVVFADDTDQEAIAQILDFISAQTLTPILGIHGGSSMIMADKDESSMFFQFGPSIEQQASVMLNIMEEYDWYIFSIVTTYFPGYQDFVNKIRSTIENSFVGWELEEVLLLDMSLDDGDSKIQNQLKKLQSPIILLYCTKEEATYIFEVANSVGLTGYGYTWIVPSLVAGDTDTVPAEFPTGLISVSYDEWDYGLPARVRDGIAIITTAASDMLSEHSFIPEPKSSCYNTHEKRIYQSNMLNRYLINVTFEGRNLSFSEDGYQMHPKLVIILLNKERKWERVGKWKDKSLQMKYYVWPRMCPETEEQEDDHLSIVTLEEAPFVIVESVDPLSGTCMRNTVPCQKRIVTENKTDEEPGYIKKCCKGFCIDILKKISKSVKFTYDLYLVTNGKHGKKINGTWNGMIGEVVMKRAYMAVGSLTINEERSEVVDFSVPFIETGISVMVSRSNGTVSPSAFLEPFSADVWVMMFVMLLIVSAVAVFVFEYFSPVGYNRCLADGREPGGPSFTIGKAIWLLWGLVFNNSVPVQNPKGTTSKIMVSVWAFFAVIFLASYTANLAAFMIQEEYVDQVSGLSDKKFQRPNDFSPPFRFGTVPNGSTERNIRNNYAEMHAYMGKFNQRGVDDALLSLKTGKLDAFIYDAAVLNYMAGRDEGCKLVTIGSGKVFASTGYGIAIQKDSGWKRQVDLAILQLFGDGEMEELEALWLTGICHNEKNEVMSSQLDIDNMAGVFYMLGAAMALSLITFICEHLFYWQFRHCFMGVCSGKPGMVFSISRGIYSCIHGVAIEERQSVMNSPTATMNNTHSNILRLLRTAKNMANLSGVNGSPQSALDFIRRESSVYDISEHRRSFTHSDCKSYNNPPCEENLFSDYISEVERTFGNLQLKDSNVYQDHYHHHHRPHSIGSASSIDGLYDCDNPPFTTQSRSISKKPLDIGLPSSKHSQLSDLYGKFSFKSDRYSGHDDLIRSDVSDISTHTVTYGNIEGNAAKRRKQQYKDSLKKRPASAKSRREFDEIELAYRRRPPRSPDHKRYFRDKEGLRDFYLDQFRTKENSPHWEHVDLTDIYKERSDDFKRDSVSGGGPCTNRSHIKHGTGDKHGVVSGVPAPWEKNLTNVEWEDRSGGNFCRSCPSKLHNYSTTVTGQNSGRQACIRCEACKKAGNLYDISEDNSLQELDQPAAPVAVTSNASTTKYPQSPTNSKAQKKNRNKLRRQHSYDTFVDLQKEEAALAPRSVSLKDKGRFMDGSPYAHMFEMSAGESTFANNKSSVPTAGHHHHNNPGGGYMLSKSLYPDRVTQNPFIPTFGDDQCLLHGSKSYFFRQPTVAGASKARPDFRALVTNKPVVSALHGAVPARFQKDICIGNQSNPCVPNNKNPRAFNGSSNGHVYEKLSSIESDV
T5 sequence (O15399 28-1336, species assumed, other chains not shown): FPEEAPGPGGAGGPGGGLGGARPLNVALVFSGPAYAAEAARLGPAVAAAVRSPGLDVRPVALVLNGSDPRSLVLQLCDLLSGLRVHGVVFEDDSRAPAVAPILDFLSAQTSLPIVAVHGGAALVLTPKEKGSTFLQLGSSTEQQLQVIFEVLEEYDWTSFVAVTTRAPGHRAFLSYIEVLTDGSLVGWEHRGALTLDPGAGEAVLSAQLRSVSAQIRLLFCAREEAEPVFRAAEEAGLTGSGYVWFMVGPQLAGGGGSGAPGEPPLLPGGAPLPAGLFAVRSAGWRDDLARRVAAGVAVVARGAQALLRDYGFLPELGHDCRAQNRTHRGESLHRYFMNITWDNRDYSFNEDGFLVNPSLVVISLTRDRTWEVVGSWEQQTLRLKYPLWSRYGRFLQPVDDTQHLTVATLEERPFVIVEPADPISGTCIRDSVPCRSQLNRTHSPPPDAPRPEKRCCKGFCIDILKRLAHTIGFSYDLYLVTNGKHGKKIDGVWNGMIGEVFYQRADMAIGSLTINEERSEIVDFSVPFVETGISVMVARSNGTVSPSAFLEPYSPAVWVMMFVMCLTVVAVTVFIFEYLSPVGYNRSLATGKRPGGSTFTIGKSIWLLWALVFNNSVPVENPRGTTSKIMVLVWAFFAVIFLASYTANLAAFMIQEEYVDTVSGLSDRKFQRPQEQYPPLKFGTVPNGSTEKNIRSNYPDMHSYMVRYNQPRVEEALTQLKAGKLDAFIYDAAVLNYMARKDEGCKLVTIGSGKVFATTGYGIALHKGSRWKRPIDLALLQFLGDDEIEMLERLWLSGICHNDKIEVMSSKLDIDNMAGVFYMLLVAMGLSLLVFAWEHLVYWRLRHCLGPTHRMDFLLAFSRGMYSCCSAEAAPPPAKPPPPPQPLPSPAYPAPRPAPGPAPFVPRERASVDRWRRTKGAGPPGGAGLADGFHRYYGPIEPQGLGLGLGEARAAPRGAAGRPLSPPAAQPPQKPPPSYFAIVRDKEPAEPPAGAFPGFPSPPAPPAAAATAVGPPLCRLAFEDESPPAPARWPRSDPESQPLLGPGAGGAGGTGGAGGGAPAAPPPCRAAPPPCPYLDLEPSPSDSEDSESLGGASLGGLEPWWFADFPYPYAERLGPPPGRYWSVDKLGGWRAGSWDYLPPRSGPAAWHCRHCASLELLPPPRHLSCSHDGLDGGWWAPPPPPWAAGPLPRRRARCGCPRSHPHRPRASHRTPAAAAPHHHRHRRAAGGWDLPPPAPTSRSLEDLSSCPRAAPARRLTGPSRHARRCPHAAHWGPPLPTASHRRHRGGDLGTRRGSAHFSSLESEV
T3 sequence (O15399 28-1336, species assumed, other chains not shown): as above

As usually defined, the EC50 is the concentration needed to bring the measured effect to its halfway point. One may read the Tmax as the time from dosing to the highest level. Broadly, the Cmax is the maximum level reached in the sampled fluid or tissue. The Vss is a proportionality between amount in the body and measured concentration, not a real space. Take `CC(C)(C)OC(=O)N1CCCC2(CCNC2=O)C1` (single isomer, unassigned) [RA-1, tert-butyl 1-oxo-2,7-diazaspiro[4.5]decane-7-carboxylate]: the EC50 at NMDAR2C is less than 1 nM. In series [1], the “% F” value came out at 28%, the AUClast was found to be 324.2 ng·h/mL, the “CSF Cmax” value was 102.5 ng/mL and the “Brain Cmax” value is given as 203.6 ng/mL. Moreover, the Tmax in series [1] was determined as 15 min. Moreover, the Cmax in series [1] (plasma) was determined as 592 ng/mL. Besides, in the series with rats (dose 0.1 mg/kg), the “Max Effect (mean number of 50 kHz USVs per 15 seconds)” value is reported as “*** (***:10.1-20)”. Also, on NMDAR2B, the “A: % maximal [3H]MK-801 binding relative to 1 mM glycine” value is listed as “+ (<100%=+)” and the EC50 was less than 1 nM. The “A: % maximal [3H]MK-801 binding relative to 1 mM glycine” value on NMDAR2D [2] (second part of table (r25-r35), c3, taken as NMDAR2D) is “− (−=0)”. Moreover, at NMDAR2D [2] (second part of table, c4, taken as NMDAR2D), the “B: log EC50” value is “−”. Also, at NMDAR2A, the “A: % maximal [3H]MK-801 binding relative to 1 mM glycine” value is “+ (<100%=+)” and the EC50 is no less than 1 nM. In addition, in the series “IV pharmacokinetics” (intravenous 2 mg/kg), the AUClast is 234.08 ng·h/mL, the T1/2 was found to be 11.4 min, the Vss amounted to 1.69 L/kg and the C0 was 1247.08 ng/mL.
By AUC(0-t) is commonly meant exposure summed from dosing to a finite time, without extrapolation to infinity. What is called bioavailability is the share of a dose that reaches the circulation, judged against a reference dose that is usually intravenous. As usually defined, the clearance is the volume of plasma or blood freed of the substance per unit of time. Broadly, the half-life is how long it takes for the measured level to halve. Turning to `CC(C)(C)OC(=O)N1CCCC12CCNC2=O` (single isomer, unassigned) [RM-1, tert-butyl 6-oxo-1,7-diazaspiro[4.4]nonane-1-carboxylate], the EC50 on NMDAR2C is less than 1 nM. Also, in series [1], the “CSF Cmax” value was found to be 1415 ng/mL and the “Brain Cmax” value worked out at 2763 ng/mL. Besides, in series [1] (setting [4]), the AUC(0-t) was 5010 ng·h/mL and the bioavailability worked out at 75%. In [1] (setting [5]), the Cmax was determined as 4310 ng/mL. For the same molecule, the Tmax in series [1] (setting [6]) is 15 min. Besides, the “Max Effect (mean number of 50 kHz USVs per 15 seconds)” value in the series with rats (dose .001-1 mg/kg) is on record as “*** (***:10.1-20)”. At NMDAR2B, the “A: % maximal [3H]MK-801 binding relative to 1 mM glycine” value was “++ (>100%=++)” and the EC50 is less than 1 nM. At NMDAR2D [3], the EC50 was less than 1 nM and the Emax is less than 100%. For the same molecule, at NMDAR2A, the “A: % maximal [3H]MK-801 binding relative to 1 mM glycine” value is given as “+ (<100%=+)” and the EC50 was less than 1 nM. Also, in the series “IV pharmacokinetics” (setting [7]), the AUC(0-t) was 1330 ng·h/mL, the clearance is 24.9 mL/min/kg, the half-life was 29.4 min and the Vd was 0.91 L/kg. For the same molecule, the C0 in “IV pharmacokinetics” (setting [8]) came out at 2010 ng/mL.
`CC(C)C(=O)N1CCCC12CCNC2=O` (centres unmarked) [RZ-405]: the EC50 at NMDAR2C is less than 1 nM. In addition, in [1], the “CSF Cmax” value was 3157 ng/mL and the “Brain Cmax” value was determined as 2209 ng/mL. In addition, in series [1] (setting [4]), the AUC(0-t) came out at 29500 ng·h/mL and the bioavailability amounted to 84%. Further, the Cmax in series [1] (setting [5]) came out at 10800 ng/mL. Besides, in series [1] (setting [6]), the Tmax was 30 min. Moreover, the Significance vs. vehicle entry in the series with Sprague Dawley rats (1 h post-dose, floating time in 5 min test) is given as “Yes (statistically significant (p<=0.05) from vehicle at dose level shown)”. In the series with Sprague Dawley rats (1 h post-dose), the “% reduction in float time” value turned out to be 78.9%. In addition, in the series with Sprague Dawley rats (24 h post-dose), the Significance vs. vehicle result is on record as “Yes (statistically significant (p<=0.05) from vehicle at dose level shown)” and the “% reduction in float time” value was 42.7%. Further, the Emax on NMDAR2B (read-out: A: % maximal [3H]MK-801 binding relative to 1 mM glycine) was greater than 100%. Besides, on NMDAR2B, the EC50 is no less than 1 nM. Also, at NMDAR2D [3], the EC50 is less than 1 nM and the Emax was less than 100%. Further, at NMDAR2A, the “A: % maximal [3H]MK-801 binding relative to 1 mM glycine” value is listed as “+ (<100%=+)” and the EC50 is less than 1 nM. In “IV pharmacokinetics” (setting [7]), the AUC(0-t) was found to be 7010 ng·h/mL, the clearance is 4.74 mL/min/kg, the half-life is 243 min and the Vd was found to be 0.69 L/kg. Further, in “IV pharmacokinetics” (setting [8]), the C0 turned out to be 3040 ng/mL.

The values are drawn from patent US11530223B2, “Spiro-lactam NMDA receptor modulators and uses thereof” (Aptinyx Inc., priority 2016, dated 2022).
